Results on 21 molecules are retold here after patent US10219516B2, “Molecules having pesticidal utility, and intermediates, compositions, and processes, related thereto” (priority 2015, dated 2019).

Structures are written as SMILES.

In assay [1] the test system is Beet Armyworm (Spodoptera exigua, LAPHEG). Nature of the assay: Bioassay on Beet Armyworm (BAW), 128-well diet tray assay. The format is in vivo. The conditions noted are these: Beet Armyworm, 128-well diet tray assay, read-out: BAW rating. The gist of the method: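 Second instar larvae were exposed to diet treated at 50 μg/cm^2 for five to seven days at 25° C.; mortality was averaged over eight wells.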

The subject of assay [2] is Cabbage Looper (Trichoplusia ni, TRIPNI). Nature of the assay: Bioassay on Cabbage Looper (CL), 128-well diet tray assay. The format is in vivo. The conditions noted are these: Trichoplusia ni; Cabbage Looper, 128-well diet tray assay; read-out: CL rating. The essentials:
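Using eight wells per molecule, artificial diet was dosed at 50 μg/cm^2 with compound in 90:10 acetone-water and dried before one to five second-instar larvae were added per well. Covered vented trays were kept at 25° C. with 14:10 light-dark for five to seven days, then per-well percent mortality was recorded and averaged.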

Consider `O=C(Cc1ccccc1)Nc1ccc(NC(=O)c2cc(NC(=O)[C@H]3[C@H](c4cc(Cl)cc(Cl)c4)C3(Cl)Cl)ccc2Cl)cc1` (relative stereo) [PF28, trans-2-Chloro-5-(2,2-dichloro-3-(3,5-dichlorophenyl)cyclopropane-1-carboxamido)-N-(4-(2-phenylacetamido)phenyl)benzamide], for which the pest or weed control at 50 µg/cm2 in assay [1] and in assay [2] was 50 to 100% in each case.
As to `CN(C(=O)C(F)(F)F)c1ccc(NC(=O)c2cc(NC(=O)[C@H]3[C@H](c4cc(Cl)cc(Cl)c4)C3(Cl)Cl)ccc2Cl)cc1` (relative stereo) [PF29, trans-2-Chloro-5-(2,2-dichloro-3-(3,5-dichlorophenyl)cyclopropane-1-carboxamido)-N-(4-(2,2,2-trifluoro-N-methylacetamido)phenyl)benzamide], the pest or weed control at 50 µg/cm2 in assay [1] and in assay [2] was 50 to 100% throughout.
For the molecule `O=C(Nc1ccc(F)cc1)c1cc(NC(=O)[C@H]2[C@H](c3ccc(Cl)c(F)c3)C2(Cl)Cl)ccc1Cl` (relative stereo) [PF34, trans-2-Chloro-5-(2,2-dichloro-3-(4-chloro-3-fluorophenyl)cyclopropane-1-carboxamido)-N-(4-fluorophenyl)benzamide], the pest or weed control at 50 µg/cm2 in assay [1] and in assay [2] was 50 to 100% in each case.
`O=C(Nc1ccc(F)cc1F)c1cc(NC(=O)[C@H]2[C@H](c3cc(Cl)cc(Br)c3)C2(Cl)Cl)ccc1Cl` (relative stereo) [PF39, 5-(trans-3-(3-Bromo-5-chlorophenyl)-2,2-dichlorocyclopropane-1-carboxamido)-2-chloro-N-(2,4-difluorophenyl)benzamide]: the pest or weed control at 50 µg/cm2 in assay [1] and in assay [2] was 50 to 100% in each case.
As for `CC(=O)Nc1ccc(NC(=O)c2cc(NC(=O)[C@H]3[C@H](c4ccc(Cl)c(Cl)c4)C3(Cl)Cl)ccc2Cl)c(F)c1` (relative stereo) [PF41, trans-N-(4-Acetamido-2-fluorophenyl)-2-chloro-5-(2,2-dichloro-3-(3,4-dichlorophenyl)cyclopropane-1-carboxamido)benzamide], the pest or weed control at 50 µg/cm2 in assay [1] and in assay [2] was 50 to 100% in each case.
For the molecule `Cc1cc(F)cc(C)c1NC(=O)c1cc(NC(=O)[C@H]2[C@H](c3cc(Cl)cc(Cl)c3)C2(Cl)Cl)ccc1Cl` (relative stereo) [PF43, trans-2-Chloro-5-(2,2-dichloro-3-(3,5-dichlorophenyl)cyclopropane-1-carboxamido)-N-(4-fluoro-2,6-dimethylphenyl)benzamide], the pest or weed control at 50 µg/cm2 in assay [1] and in assay [2] was 50 to 100% throughout.
For `N#CSc1ccc(NC(=O)c2cc(NC(=O)[C@H]3[C@H](c4cc(Cl)cc(Cl)c4)C3(Cl)Cl)ccc2Cl)cc1` (relative stereo) [PF45, trans-2-Chloro-5-(2,2-dichloro-3-(3,5-dichlorophenyl)cyclopropane-1-carboxamido)-N-(4-thiocyanatophenyl)benzamide], the pest or weed control at 50 µg/cm2 in assay [1] and in assay [2] was 50 to 100% throughout.
Consider `Cc1cc(F)ccc1NC(=O)c1cc(NC(=O)[C@H]2[C@H](c3cc(Cl)c(Cl)c(Cl)c3)C2(Cl)Cl)ccc1Cl` (relative stereo) [PF47, trans-2-Chloro-5-(2,2-dichloro-3-(3,4,5-trichlorophenyl)cyclopropane-1-carboxamido)-N-(4-fluoro-2-methylphenyl)benzamide], for which the pest or weed control at 50 µg/cm2 in assay [1] and in assay [2] was 50 to 100% throughout.
On to `Cc1c(F)ccc(NC(=O)c2cc(NC(=O)[C@H]3[C@H](c4cc(Cl)cc(Cl)c4)C3(Cl)Cl)ccc2Cl)c1F` (relative stereo) [PF55, trans-2-Chloro-5-(2,2-dichloro-3-(3,5-dichlorophenyl)cyclopropane-1-carboxamido)-N-(2,4-difluoro-3-methylphenyl)benzamide], for which the pest or weed control at 50 µg/cm2 in assay [1] and in assay [2] was 50 to 100% each time.
On to `Cc1cc(C(F)(C(F)(F)F)C(F)(F)F)cc(C)c1NC(=O)c1cc(NC(=O)[C@H]2[C@H](c3cc(Cl)cc(Cl)c3)C2(Cl)Cl)ccc1Cl` (relative stereo) [PF60, trans-2-Chloro-5-(2,2-dichloro-3-(3,5-dichlorophenyl)cyclopropane-1-carboxamido)-N-(2,6-dimethyl-4-(perfluoropropan-2-yl)phenyl)benzamide], for which the pest or weed control at 50 µg/cm2 in assay [1] and in assay [2] was 50 to 100% in each case.
Consider `COc1ccc([C@H]2[C@H](C(=O)Nc3ccc(Cl)c(C(=O)Nc4ccc(F)cc4)c3)C2(Cl)Cl)cc1` (relative stereo) [PF65, trans-2-Chloro-5-(2,2-dichloro-3-(4-methoxyphenyl)cyclopropane-1-carboxamido)-N-(4-fluorophenyl)benzamide], for which the pest or weed control at 50 µg/cm2 in assay [1] and in assay [2] was 50 to 100% throughout.
`O=C(Nc1ccc(F)c(C(F)(F)F)c1)c1cc(NC(=O)[C@H]2[C@H](c3cc(Cl)cc(Cl)c3)C2(Cl)Cl)ccc1Cl` (relative stereo) [PF70, trans-2-Chloro-5-(2,2-dichloro-3-(3,5-dichlorophenyl)cyclopropane-1-carboxamido)-N-(4-fluoro-3-(trifluoromethyl)phenyl)benzamide]: the pest or weed control at 50 µg/cm2 in assay [1] and in assay [2] was 50 to 100% each time.
With `Cc1cc([N+](=O)[O-])ccc1NC(=O)c1cc(NC(=O)[C@H]2[C@H](c3cc(Cl)cc(Cl)c3)C2(Cl)Cl)ccc1Cl` (relative stereo) [PF75, trans-2-Chloro-5-(2,2-dichloro-3-(3,5-dichlorophenyl)cyclopropane-1-carboxamido)-N-(2-methyl-4-nitrophenyl)benzamide], the pest or weed control at 50 µg/cm2 in assay [1] and in assay [2] was 50 to 100% each time.
`O=C(Nc1ccc(NC(=O)c2cc(NC(=O)[C@H]3[C@H](c4cc(Cl)cc(Cl)c4)C3(Cl)Cl)ccc2Cl)cc1)c1ccccc1` (relative stereo) [PF104, trans-N-(4-Benzamidophenyl)-2-chloro-5-(2,2-dichloro-3-(3,5-dichlorophenyl)cyclopropane-1-carboxamido)benzamide]: the pest or weed control at 50 µg/cm2 in assay [1] and in assay [2] was 50 to 100% in each case.
For the molecule `N#CC1(C(=O)Nc2ccc(NC(=O)c3cc(NC(=O)[C@H]4[C@H](c5cc(Cl)cc(Cl)c5)C4(Cl)Cl)ccc3Cl)cc2)CC1` (relative stereo) [PF109, trans-2-Chloro-N-(4-(1-cyanocyclopropane-1-carboxamido)phenyl)-5-(2,2-dichloro-3-(3,5-dichlorophenyl)cyclopropane-1-carboxamido)benzamide], the pest or weed control at 50 µg/cm2 in assay [1] and in assay [2] was 50 to 100% throughout.
As to `O=C(Nc1nc(C(F)(F)F)cs1)c1cc(NC(=O)[C@H]2[C@H](c3cc(Cl)cc(Cl)c3)C2(Cl)Cl)ccc1Cl` (relative stereo) [PF134, trans-2-Chloro-5-(2,2-dichloro-3-(3,5-dichlorophenyl)cyclopropane-1-carboxamido)-N-(4-(trifluoromethyl)thiazol-2-yl)benzamide], the pest or weed control at 50 µg/cm2 in assay [1] and in assay [2] was 50 to 100% throughout.
In the case of `Cc1ccc(-c2csc(NC(=O)c3cc(NC(=O)[C@H]4[C@H](c5cc(Cl)cc(Cl)c5)C4(Cl)Cl)ccc3Cl)n2)cc1` (relative stereo) [PF136, trans-2-Chloro-5-(2,2-dichloro-3-(3,5-dichlorophenyl)cyclopropane-1-carboxamido)-N-(4-(p-tolyl)thiazol-2-yl)benzamide], the pest or weed control at 50 µg/cm2 in assay [1] and in assay [2] was 50 to 100% in each case.
Turning to `O=C(Nc1cc(C(F)(F)F)[nH]n1)c1cc(NC(=O)[C@H]2[C@H](c3cc(Cl)cc(Cl)c3)C2(Cl)Cl)ccc1Cl` (relative stereo) [PF138, trans-2-Chloro-5-(2,2-dichloro-3-(3,5-dichlorophenyl)cyclopropane-1-carboxamido)-N-(5-(trifluoromethyl)-1H-pyrazol-3-yl)benzamide], the pest or weed control at 50 µg/cm2 in assay [1] and in assay [2] was 50 to 100% throughout.
Take `COc1c(Cl)cc([C@H]2[C@H](C(=O)Nc3ccc(Cl)c(C(=O)Nc4ccc(F)cc4)c3)C2(Cl)Cl)cc1Cl` (relative stereo) [PF156, trans-2-Chloro-5-(2,2-dichloro-3-(3,5-dichloro-4-methoxyphenyl)cyclopropane-1-carboxamido)-N-(4-fluorophenyl)benzamide]: the pest or weed control at 50 µg/cm2 in assay [1] and in assay [2] was 50 to 100% each time.
Turning to `O=C(Nc1ccc(NC(=O)C2(C(F)(F)F)CC2)cc1)c1cc(NC(=O)[C@H]2[C@H](c3cc(Cl)cc(Cl)c3)C2(Cl)Cl)ccc1Cl` (relative stereo) [PF162, trans-2-Chloro-5-(2,2-dichloro-3-(3,5-dichlorophenyl)cyclopropane-1-carboxamido)-N-(4-(1-(trifluoromethyl)cyclopropane-1-carboxamido)phenyl)benzamide], the pest or weed control at 50 µg/cm2 in assay [1] and in assay [2] was 50 to 100% throughout.
In the case of `CC(C)(C)CC(=O)Nc1ccc(NC(=O)c2cc(NC(=O)[C@H]3[C@H](c4cc(Cl)cc(Cl)c4)C3(Cl)Cl)ccc2Cl)cc1` (relative stereo) [PF164, trans-2-Chloro-5-(2,2-dichloro-3-(3,5-dichlorophenyl)cyclopropane-1-carboxamido)-N-(4-(3,3-dimethylbutanamido)phenyl)benzamide], the pest or weed control at 50 µg/cm2 in assay [1] and in assay [2] was 50 to 100% each time.
